Reference: PMC9697930 (International Journal of Molecular Sciences, 2022)
Read-outs that look alike come from different tables or passages of the source.

Experiments:
[1] = MTT proliferation / drug combination assay; format: cell-based, Canine; details: dog, MDCKII-ABCG2 cells; read-out: IC50
Protocol: (§1) The viability MTT assay was employed in several experimental sets, including induction studies, comparative viability assays, and drug combinations. First, 1.3 × 10^4 (MDCKII sublines), 1.2 × 10^4 (A431 sublines), 1.5 × 10^4 (MCF-7), and 1.0 × 10^4 (primary NSCLC explants) cells were seeded in 96-well plates. After seeding, cells were left to refresh in incubator for 24 h. Secondly, the medium was removed, and the serial dilutions of the drugs or drug combinations were added to the cells. Next to these variants, a medium with 40% DMSO and vehicle-containing media were tested as nonviable and unaffected viability controls, respectively. After an additional 48 h of incubation, the cells were washed with 1 × PBS and then treated with 1 mg/mL MTT solution in Opti-MEM. Subsequently, cells were incubated for 60 min under standard conditions. After MTT treatment, generated formazan crystals were solubilized with DMSO for 10 min. Wavelengths of 570 nm (formazan) and 690 nm (background) were used for absorbance measurements using a microplate reader Infinite 200 Pro NanoQuant (Tecan, Männedorf, Switzerland).
(§2) In vitro cell lines (MDCKII and A431) and primary NSCLC explants were seeded (see densities above) in 96-well plates and incubated for 24 h. […] Combined cells were incubated with the tested compounds for 48 h, and subsequently, MTT assay was performed to assess cell viability as described above. Besides IC50-shift analysis, CompuSyn 3.0.1 software (ComboSyn Inc., Paramus, NJ, USA) was used for the additional analysis of obtained data. This software works with the algorithms of the combination index (CI) method of Chou–Talalay, which is frequently used for the accurate quantification of drug combinations’ outcomes. According to the CI method principle, the combination effects were separated into three categories, including synergistic (CI < 0.9), additive (CI between 0.9–1.1), or antagonistic (CI > 1.1) ones.

[2] = test system: MDCKII-parent; assay: MTT proliferation / drug combination assay; format: cell-based, Canine; details: Canis lupus familiaris, 48 h
Protocol: as §1, §2

[3] = test system: A431-ABCG2; assay: MTT proliferation / drug combination assay; format: cell-based; details: Homo sapiens, 48 h; read-out: IC50
Protocol: as §1, §2

[4] = test system: A431-parent; assay: MTT proliferation / drug combination assay; format: cell-based; details: Homo sapiens, 48 h
Protocol: as §1, §2

| SMILES | IC50 at 48 h [1] [µM] | IC50 ([2]; read-out: IC50) [µM] | IC50 [3] [µM] | IC50 ([4]; read-out: IC50) [µM] | IC50 [2] [µM] | IC50 [4] [µM] |
| --- | --- | --- | --- | --- | --- | --- |
| O=C1c2c(O)ccc(O)c2C(=O)c2c(NCCNCCO)ccc(NCCNCCO)c21 [mitoxantrone] | 12.1 | 1.48 | 10 | 0.88 | – | – |
| COc1cccc2c1C(=O)c1c(O)c3c(c(O)c1C2=O)C[C@@](O)(C(C)=O)C[C@@H]3O[C@H]1C[C@H](N)[C@H](O)[C@H](C)O1 [daunorubicin] | – | – | – | – | 1 | 1.11 |
